# Measured values from US6624190B2, “2-acylamino-2-deoxy-glucono-1,5-lactones, a method for the production thereof, compositions containing them, and uses thereof” (Universite Pierre et Marie Curie (Paris VI), priority 1998, dated 2003).
# Assays:
# [1] = Determination of critical micellar concentration by surface tension (Wilhelmy plate method); type: physicochemical
# Method: The surface tension γ of a liquid in contact with air was measured at 25° C. by the Wilhelmy plate method (Prolabo TENSIMAT n3 tensometer). This consisted of plunging a vertical platinum strip (19.54 mm long) into a liquid then gradually withdrawing it, monitoring the tension exerted on the strip by the liquid film. The maximum value recorded before complete detachment of the strip represented the surface tension, expressed in mN/m. After calibrating the apparatus (calibration at two points: the zero value with the strip in air and a value of 50.2 mN/m with the strip tested with a weight of 200 mg), the surface tensions of solutions containing increasing quantities of the surfactant were recorded (measurements repeated three times). The critical micellar concentration was obtained from conventional graphs of γ=f(logC) where C represents the concentration in mol/l.
# The change in surface tension γ (in mN/m) of an aqueous solution (volume=10 ml) was monitored as a function of the quantities of dissolved product (C, in Mol/l) (A=C(O)C7H15 and R2=CH3). The critical micellar concentration corresponds to the concentration above which the surface tension becomes a constant.
# [2] = tested on: bovine kidney β—N-acetyl glucosaminidase (EC 3.2.1.52); assay: N-acetyl glucosaminidase (NaGase) enzymatic inhibition, pNphNAG substrate; type: biochemical
# Method: The enzyme used as a reference was bovine kidney β—N-acetyl glucosaminidase (EC 3.2.1.52) (Sigma A-2415) and its substrate was p-nitrophenyl 2-acetamido-2-deoxy glucopyranoside (Acros 22941-1000) (pNphNAG). The commercially available enzyme, in the form of a suspension in a 3.2 M solution of (NH4)2SO4, was centrifuged at 13000 rpm for 5 minutes and the residue was taken up in 1 ml of water. The solution obtained was the mother enzymatic solution.
# Protocol: 100 μl of the enzymatic solution diluted to 1/10 was mixed with 100 μl of pH 4.2 citrate buffer and 300 μl of inhibitor solution (or water for the reference) and incubated at 37° C. for 5 minutes in a spectrophotometer cell. After adding 500 μl of substrate (5 mM or 2.5 mM), incubation was continued for 8 minutes at 37° C. and the optical density at 400 nm was monitored. The quantity of p-nitrophenol liberated by the enzymatic reaction was determined by correlating the optical density to a calibration curve (OD at 400 nm=f([p-nitrophenol])). The N-acetyl glucosaminidase activity unit was defined as the quantity of enzyme required to liberate one μmole of p-nitrophenol per minute under the conditions cited above.
# I50 is defined as the concentration of compound capable of inhibiting 50% of the enzymatic activity under the assay conditions.
# We colorimetrically monitored the quantities of p-nitrophenol liberated (in 10^−3 μmol/mn) by the action of N-acetyl glucosaminidase (NaGase) on pNphNAG (2.5 mM) in the presence of increasing quantities of (i) (concentration C in mM).
# In order to determine the inhibition constant K1, we used Dixon's graphical method, which consisted of plotting the inverse of the initial velocity (1 Iv0) of the enzymatic reaction against the inhibitor concentration (C, in μM) for two different substrate concentrations. The abscissa of the intersection point of the two straight lines corresponds to —K1.
# [3] = molecular target: T1, chicken lysozyme (Gallus gallus, UniProt P00698); assay: Lysozyme inhibition, Micrococcus lysodeikticus walls substrate; type: biochemical
# T1 construct: purchased Sigma L-6876
# T1 sequence (P00698 19-147): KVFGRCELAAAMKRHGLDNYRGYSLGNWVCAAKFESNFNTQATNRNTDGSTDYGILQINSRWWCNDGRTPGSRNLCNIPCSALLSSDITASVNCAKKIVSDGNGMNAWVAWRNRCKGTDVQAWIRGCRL
# Method: The enzyme studied was 0.5 g/l chicken lysozyme (Sigma, L-6876) in a 100 mM, pH 6.5 phosphate buffer and the substrate was constituted by 17 mg/100 ml of Micrococcus lysodeikticus walls in suspension in the same buffer.
# Protocol: 100 μl of enzymatic solution was diluted with 400 μl of inhibitor solution. This was left at ambient temperature for 5 or 10 minutes. 40 μl of mixture was added to 3 ml of the substrate suspension in a spectrophotometer cell. The optical density was recorded at 450 nm every 10 seconds for 3 minutes.
# [4] = comparison values; cited from earlier work
SMILES,"critical micellar concentration (CMC) ([1]; aqueous solution, 25° C.) [mM]",surface tension of water reduced to ([1]; reduction from 71 mN/m for concentrations of 0 to 25 mM (8.6 g/l)) [mN/m],nature of inhibition ([2]; Dixon diagram),"Ki ([2]; Dixon's graphical method, substrate 2.5 mM and 5 mM, read-out: inhibition constant K1) [µM]","IC50 ([2]; pNphNAG 2.5 mM, pH 4.2 citrate buffer, 37° C., read-out: I50) [µM]","effect on lysozyme activity ([3]; 0.1 mg/ml lysozyme, compound 1.8 mM)",affinity for lysozyme ([3]; summary),critical micellar concentration (CMC) of commercially available glycosylated surfactants [4] [mM]
"CCCCCCCC(=O)OC[C@H]1OC(=O)[C@H](NC(C)=O)[C@@H](O)[C@@H]1O [(i), 2-acetamido-2-deoxy-6—O-octanoyl-glucono-1,5-lactone]",25,30,competitive,~3,~7,No difference was detected,no affinity,
CCCCCCCNC(=O)OC[C@H]1O[C@H](OC)[C@H](O)[C@@H](O)[C@@H]1O [HECAMEG],,,,,,,,22
"CCCCCCCCO[C@@H]1O[C@H](CO)[C@@H](O)[C@H](O)[C@H]1O [octyl glucoside, n-octyl glucoside]",,,,,,,,18
